Source: patent US8003660B2, “Modulators of muscarinic receptors” (Vertex Pharmaceuticals Incorporated, priority 2006, dated 2011)

Columns and labels:
Type in all cases: cell-based
M3 muscarinic receptor = target: T1, M3 muscarinic receptor (Homo sapiens, UniProt P20309); experiment: Functional mobilization of intracellular calcium (FLIPR) in CHO cells expressing M3; conditions: for EC50: CHO cells expressing M3, FLIPR calcium; for Emax: CHO, read-out: M3 Efficacy
T1 construct: expressed in transfected cells; host or cells: CHO (M3-CHO)
In short: (§1)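 Recombinant CHO cells loaded with Fluo-3 AM or Calcium 3 dye in pH 7.4 buffer containing 1 mM probenecid, with 0.5% final DMSO. For agonism, compound is added directly. For inhibition, it is preincubated 15 min, or co-applied, before carbachol at EC80. FLIPR fluorescence (ex 488, em 540 nm) is recorded for 60 s.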

M1 muscarinic receptor = target: T2, M1 muscarinic receptor (Homo sapiens, UniProt P11229); experiment: Functional mobilization of intracellular calcium (FLIPR) in CHO cells expressing M1; conditions: for EC50: CHO cells expressing M1, FLIPR calcium; for Emax: CHO, read-out: M1 Efficacy
T2 construct: expressed in transfected cells; host or cells: CHO (M1-CHO)
T2 sequence (P11229 1-460): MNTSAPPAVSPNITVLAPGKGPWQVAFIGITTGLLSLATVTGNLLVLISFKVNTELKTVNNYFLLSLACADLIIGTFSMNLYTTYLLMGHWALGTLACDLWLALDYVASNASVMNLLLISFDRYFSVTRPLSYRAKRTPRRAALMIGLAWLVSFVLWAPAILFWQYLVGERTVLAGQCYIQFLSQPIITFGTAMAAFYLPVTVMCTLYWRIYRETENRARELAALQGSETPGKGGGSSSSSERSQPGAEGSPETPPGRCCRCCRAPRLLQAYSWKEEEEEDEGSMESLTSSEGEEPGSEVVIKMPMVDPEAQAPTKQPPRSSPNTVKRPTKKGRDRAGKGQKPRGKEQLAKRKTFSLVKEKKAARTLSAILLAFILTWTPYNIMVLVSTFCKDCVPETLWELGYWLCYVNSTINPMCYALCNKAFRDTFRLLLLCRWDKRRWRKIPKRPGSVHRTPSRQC
In short: as §1

M2 muscarinic receptor = target: T3, M2 muscarinic receptor (Homo sapiens, UniProt P08172); experiment: Functional mobilization of intracellular calcium (FLIPR) in CHO cells expressing M2; conditions: for EC50: CHO cells expressing M2, FLIPR calcium; for Emax: CHO, read-out: M2 Efficacy
T3 construct: expressed in transfected cells; host or cells: CHO (M2-CHO)
T3 sequence (P08172 1-466): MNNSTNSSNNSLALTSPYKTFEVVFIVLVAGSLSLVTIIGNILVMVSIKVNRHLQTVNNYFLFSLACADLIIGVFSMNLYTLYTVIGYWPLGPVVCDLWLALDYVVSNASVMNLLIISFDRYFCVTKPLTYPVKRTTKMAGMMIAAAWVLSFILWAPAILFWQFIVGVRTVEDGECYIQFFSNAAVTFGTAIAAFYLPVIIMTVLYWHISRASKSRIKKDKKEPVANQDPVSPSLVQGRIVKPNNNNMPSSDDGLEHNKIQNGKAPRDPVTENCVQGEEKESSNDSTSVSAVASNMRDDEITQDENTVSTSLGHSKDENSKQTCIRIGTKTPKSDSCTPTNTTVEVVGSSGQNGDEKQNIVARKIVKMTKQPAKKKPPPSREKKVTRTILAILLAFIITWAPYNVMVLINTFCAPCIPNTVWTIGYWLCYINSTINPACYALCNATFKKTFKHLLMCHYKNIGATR
In short: as §1

M4 muscarinic receptor = target: T4, M4 muscarinic receptor (Homo sapiens, UniProt P08173); experiment: Functional mobilization of intracellular calcium (FLIPR) in CHO cells expressing M4; conditions: for EC50: CHO cells expressing M4, FLIPR calcium; for Emax: CHO, read-out: M4 Efficacy
T4 construct: expressed in transfected cells; host or cells: CHO (M4-CHO)
T4 sequence (P08173 1-479): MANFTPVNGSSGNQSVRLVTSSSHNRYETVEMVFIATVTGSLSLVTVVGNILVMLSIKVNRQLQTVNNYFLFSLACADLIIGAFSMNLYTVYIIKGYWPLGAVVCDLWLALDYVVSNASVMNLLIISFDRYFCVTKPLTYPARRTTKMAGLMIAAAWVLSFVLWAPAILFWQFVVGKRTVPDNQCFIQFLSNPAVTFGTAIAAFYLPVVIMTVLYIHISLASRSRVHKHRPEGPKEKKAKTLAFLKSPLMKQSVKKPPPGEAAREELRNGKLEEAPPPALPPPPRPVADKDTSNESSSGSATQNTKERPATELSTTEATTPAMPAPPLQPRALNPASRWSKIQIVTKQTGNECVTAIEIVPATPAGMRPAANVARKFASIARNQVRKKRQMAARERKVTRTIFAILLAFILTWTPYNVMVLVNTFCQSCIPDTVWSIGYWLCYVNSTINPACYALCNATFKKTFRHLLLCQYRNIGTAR
In short: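 Calcium flux is read on FLIPR over 60 sec at 488/540 nm in muscarinic-receptor CHO lines. Antagonist mode adds carbachol at EC80 after 15 min compound preincubation or with simultaneous co-application. Agonist mode adds compound alone. Cells carry Fluo-3 or Calcium 3 dye in probenecid-containing pH 7.4 buffer, 0.5% DMSO final.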

[1] = 100% = maximum response obtained with the Carbachol control

T1 sequence (P20309 whole entry): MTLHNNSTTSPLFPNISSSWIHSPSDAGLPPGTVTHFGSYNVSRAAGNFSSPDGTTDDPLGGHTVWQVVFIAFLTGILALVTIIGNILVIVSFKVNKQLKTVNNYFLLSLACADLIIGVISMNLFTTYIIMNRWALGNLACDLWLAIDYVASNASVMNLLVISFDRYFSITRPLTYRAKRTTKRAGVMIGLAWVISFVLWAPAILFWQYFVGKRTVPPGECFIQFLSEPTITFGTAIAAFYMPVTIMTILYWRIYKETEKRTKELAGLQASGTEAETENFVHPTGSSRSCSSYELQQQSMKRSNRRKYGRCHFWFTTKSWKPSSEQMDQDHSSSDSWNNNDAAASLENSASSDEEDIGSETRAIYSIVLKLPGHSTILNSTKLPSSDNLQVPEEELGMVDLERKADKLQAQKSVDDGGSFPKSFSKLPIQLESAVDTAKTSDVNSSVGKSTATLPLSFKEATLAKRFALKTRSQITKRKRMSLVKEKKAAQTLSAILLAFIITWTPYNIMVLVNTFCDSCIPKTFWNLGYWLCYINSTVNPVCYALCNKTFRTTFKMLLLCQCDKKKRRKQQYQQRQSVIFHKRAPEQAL

Row | Structure (SMILES) | EC50 (M3 muscarinic receptor) [nM] | Emax (M3 muscarinic receptor; [1]) [%] | EC50 (M1 muscarinic receptor) [nM] | Emax (M1 muscarinic receptor; [1]) [%] | EC50 (M2 muscarinic receptor) [nM] | Emax (M2 muscarinic receptor; [1]) [%] | EC50 (M4 muscarinic receptor) [nM] | Emax (M4 muscarinic receptor; [1]) [%] | M3 Efficacy (M3 muscarinic receptor; [1]) | M1 Efficacy (M1 muscarinic receptor; [1]) | M2 Efficacy (M2 muscarinic receptor; [1]) | M4 Efficacy (M4 muscarinic receptor; [1])
1 | CC(=O)N1CCCC[C@H]1C(=O)N[C@@H]1CCC2(CCN(CCC(C)(C)C)CC2)c2cc(F)ccc21 [compound 72] | > 5000 | < 25 | 2000 to 5000 | 25 to 100 | 2000 to 5000 | < 25 | < 2000 | 25 to 100 | – | – | – | –
2 | CCC(CC)CN1CCC2(CC[C@H](NC(C)=O)c3ccccc32)CC1 [compound 73] | > 5000 | < 25 | < 2000 | 25 to 100 | > 5000 | < 25 | < 2000 | 25 to 100 | – | – | – | –
3 | CC(C)(C)CCN1CCC2(CC[C@H](NC(=O)c3cccnc3)c3ccccc32)CC1 [compound 74] | > 5000 | – | < 2000 | – | < 2000 | – | < 2000 | – | + (efficacy was calculated to be less than 25%) | ++ (efficacy was calculated to be from 100% to 25%) | ++ (efficacy was calculated to be from 100% to 25%) | ++ (efficacy was calculated to be from 100% to 25%)
4 | CC(C)(C)CCN1CCC2(CC[C@@H](NC(=O)[C@@H]3CCC(=O)N3)c3ccc(F)cc32)CC1 [compound 75] | > 5000 | < 25 | 2000 to 5000 | 25 to 100 | 2000 to 5000 | < 25 | < 2000 | 25 to 100 | – | – | – | –
5 | CC(C)(C)CCN1CCC2(CC[C@@H](NC(=O)CN3CCCC3=O)c3ccc(F)cc32)CC1 [compound 76] | > 5000 | < 25 | < 2000 | 25 to 100 | < 2000 | 25 to 100 | < 2000 | 25 to 100 | – | – | – | –
6 | CCN(C(C)=O)[C@H]1CCC2(CCN(CCC(C)(C)C)CC2)c2cc(F)ccc21 [compound 77] | > 5000 | < 25 | < 2000 | 25 to 100 | 2000 to 5000 | < 25 | < 2000 | 25 to 100 | – | – | – | –
7 | C[C@H](C(=O)N[C@@H]1CCC2(CCN(CCC(C)(C)C)CC2)c2cc(F)ccc21)N1CCCC1=O [compound 78] | > 5000 | < 25 | < 2000 | 25 to 100 | < 2000 | 25 to 100 | < 2000 | 25 to 100 | – | – | – | –
8 | CC(C)(C)CCN1CCC2(CC[C@H](NC(=O)Cc3cccnc3)c3ccc(F)cc32)CC1 [compound 79] | > 5000 | < 25 | < 2000 | 25 to 100 | < 2000 | 25 to 100 | < 2000 | 25 to 100 | – | – | – | –
9 | CC(C)CCN1CCC2(CC[C@H](NS(C)(=O)=O)c3ccccc32)CC1 [compound 80] | > 5000 | < 25 | < 2000 | 25 to 100 | > 5000 | < 25 | < 2000 | 25 to 100 | – | – | – | –
10 | CC(=O)N1CCC(C(=O)N[C@H]2CCC3(CCN(CCC(C)(C)C)CC3)c3cc(F)ccc32)CC1 [compound 81] | > 5000 | < 25 | 2000 to 5000 | 25 to 100 | > 5000 | < 25 | < 2000 | 25 to 100 | – | – | – | –
11 | CC(=O)N1CCCC[C@@H]1C(=O)N[C@H]1CCC2(CCN(CCC(C)(C)C)CC2)c2cc(F)ccc21 [compound 82] | > 5000 | < 25 | < 2000 | 25 to 100 | 2000 to 5000 | < 25 | < 2000 | 25 to 100 | – | – | – | –
12 | CC(=O)N1CCCC[C@H]1C(=O)N[C@H]1CCC2(CCN(CCC(C)(C)C)CC2)c2cc(F)ccc21 [compound 83] | > 5000 | < 25 | < 2000 | 25 to 100 | > 5000 | < 25 | < 2000 | 25 to 100 | – | – | – | –
13 | CC(=O)N1CCC[C@H]1C(=O)N[C@@H]1CCC2(CCN(CCC(C)(C)C)CC2)c2ccccc21 [compound 84] | > 5000 | < 25 | 2000 to 5000 | 25 to 100 | < 2000 | 25 to 100 | < 2000 | 25 to 100 | – | – | – | –
14 | C[C@@H](O)CC(=O)N[C@H]1CCC2(CCN(CCC(C)(C)C)CC2)c2ccccc21 [compound 85] | > 5000 | < 25 | < 2000 | 25 to 100 | < 2000 | 25 to 100 | < 2000 | 25 to 100 | – | – | – | –
15 | CC(=O)N(C(C)C)[C@H]1CCC2(CCN(CCC(C)(C)C)CC2)c2cc(F)ccc21 [compound 86] | > 5000 | < 25 | < 2000 | 25 to 100 | > 5000 | < 25 | < 2000 | 25 to 100 | – | – | – | –
16 | CC(=O)NC(C(=O)N[C@@H]1CCC2(CCN(CCC(C)(C)C)CC2)c2ccccc21)C(C)C (some centres unmarked) [compound 87] | > 5000 | < 25 | > 5000 | < 25 | > 5000 | < 25 | < 2000 | 25 to 100 | – | – | – | –
17 | CC(C)(C)CCN1CCC2(CC[C@H](NC(=O)CCOC(C)(C)C)c3ccccc32)CC1 [compound 88] | > 5000 | < 25 | < 2000 | 25 to 100 | < 2000 | 25 to 100 | < 2000 | 25 to 100 | – | – | – | –
18 | CC(C)CCN1CCC2(CCCc3ccccc32)CC1 [compound 89] | > 5000 | < 25 | > 5000 | 25 to 100 | > 5000 | < 25 | < 2000 | 25 to 100 | – | – | – | –
19 | CC(C)CCN1CCC2(CC[C@H](N3CCCC3=O)c3ccccc32)CC1 [compound 90] | > 5000 | < 25 | 2000 to 5000 | 25 to 100 | > 5000 | < 25 | 2000 to 5000 | 25 to 100 | – | – | – | –
20 | CC(C)(C)CCN1CCC2(CC[C@H](N3CCCC3=O)c3ccc(F)cc32)CC1 [compound 91] | > 5000 | < 25 | < 2000 | 25 to 100 | < 2000 | < 25 | < 2000 | 25 to 100 | – | – | – | –
21 | CC(=O)CCC(=O)N[C@H]1CCC2(CCN(CCC(C)(C)C)CC2)c2cc(F)ccc21 [compound 92] | > 5000 | < 25 | < 2000 | 25 to 100 | < 2000 | 25 to 100 | < 2000 | 25 to 100 | – | – | – | –
22 | CC(C)(C)CCN1CCC2(CC[C@@H](NC(=O)CC3CCOCC3)c3ccc(F)cc32)CC1 [compound 93] | > 5000 | < 25 | 2000 to 5000 | 25 to 100 | > 5000 | < 25 | < 2000 | 25 to 100 | – | – | – | –
